Patent US10092551B2, “Spiro-thiazolones” (Hoffmann-La Roche Inc., priority 2014, dated 2018)

Molecular target: human V1a receptor (Homo sapiens (Human), UniProt P37288)
Test: human V1a receptor binding studies (3H-Vasopressin, SPA beads)
Conditions: membranes of HEK293 cells transiently transfected with human V1a receptor, Ki by Cheng-Prussoff
Outline: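 Membranes from HEK293 cells transiently expressing cloned human V1a receptor, bound on yttrium silicate SPA beads with 4 nM 3H-vasopressin (added stock) and serially diluted compound, 1 h at room temperature. Non-specific binding defined with cold vasopressin; IC50 by non-linear regression, Ki via Cheng-Prusoff.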

Sequence of human V1a receptor (P37288 whole entry): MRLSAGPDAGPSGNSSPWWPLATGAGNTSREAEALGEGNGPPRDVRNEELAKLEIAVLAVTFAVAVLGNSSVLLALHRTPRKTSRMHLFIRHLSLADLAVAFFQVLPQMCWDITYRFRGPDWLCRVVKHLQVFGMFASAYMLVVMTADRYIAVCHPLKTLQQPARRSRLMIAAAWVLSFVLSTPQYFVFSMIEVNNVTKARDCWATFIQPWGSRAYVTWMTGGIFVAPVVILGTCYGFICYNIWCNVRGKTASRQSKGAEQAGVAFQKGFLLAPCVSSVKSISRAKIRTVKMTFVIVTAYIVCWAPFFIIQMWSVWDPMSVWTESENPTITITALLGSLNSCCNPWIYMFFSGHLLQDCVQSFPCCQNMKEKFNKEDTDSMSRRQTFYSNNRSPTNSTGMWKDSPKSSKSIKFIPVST

| Compound | pKi hV1a |
| --- | --- |
| O=C1N=C(N2CCC3(CC2)OCc2ccccc23)S/C1=C(/CO)c1ccccc1 [Example 124, (5E)-5-(2-hydroxy-1-phenylethylidene)-2-(1′H,3H-spiro[2-benzofuran-1,4′-piperidin]-1′-yl)-1,3-thiazol-4(5H)-one] | 9.3 |
| COCC(COC)=C1SC(N2CCC3(CC2)OCc2ccccc23)=NC1=O [Example 15, 5-(1,3-dimethoxypropan-2-ylidene)-2-(1′H,3H-spiro[2-benzofuran-1,4′-piperidin]-1′-yl)-1,3-thiazol-4(5H)-one] | 8.8 |
| C/C(=C1/SC(N2CCC3(CC2)OCc2ccccc23)=NC1=O)c1cnc[nH]1 [Example 117, (5E/Z)-5-[1-(1H-imidazol-5-yl)ethylidene]-2-(1′H,3H-spiro[2-benzofuran-1,4′-piperidin]-1′-yl)-1,3-thiazol-4(5H)-one] | 7.3 |
| O=C1N=C(N2CCC3(CC2)OCc2ccccc23)S/C1=C1/CCc2cc(Cl)ccc21 [Example 10, (5E/Z)-5-(5-chloro-2,3-dihydro-1H-inden-1-ylidene)-2-(1′H,3H-spiro[2-benzofuran-1,4′-piperidin]-1′-yl)-1,3-thiazol-4(5H)-one] | 6.9 |
| CC/C(=C1/SC(N2CCC3(CC2)OCc2ccccc23)=NC1=O)c1cc(C)on1 [Example 64, (5E/Z)-5-[1-(5-methyl-1,2-oxazol-3-yl)propylidene]-2-(1′H,3H-spiro[2-benzofuran-1,4′-piperidin]-1′-yl)-1,3-thiazol-4(5H)-one] | 8.6 |
| C/C(=C1/SC(N2CCC3(CC2)OCc2ccccc23)=NC1=O)c1ccc(C)nc1 [Example 7, (5E/Z)-5-[1-(6-methylpyridin-3-yl)ethylidene]-2-(1′H,3H-spiro[2-benzofuran-1,4′-piperidin]-1′-yl)-1,3-thiazol-4(5H)-one] | 8.9 |
| C/C(=C1/SC(N2CCC3(CC2)OCc2ccccc23)=NC1=O)c1ccc(Cl)nc1 [Example 96, (5Z)-5-[1-(6-chloropyridin-3-yl)ethylidene]-2-(1′H,3H-spiro[2-benzofuran-1,4′-piperidin]-1′-yl)-1,3-thiazol-4(5H)-one] | 9.4 |
| C/C(=C1\SC(N2CCC3(CC2)OCc2ccccc23)=NC1=O)C1CCCCC1 [Example 28, (5E)-5-(1-cyclohexylethylidene)-2-(1′H,3H-spiro[2-benzofuran-1,4′-piperidin]-1′-yl)-1,3-thiazol-4(5H)-one] | 7.9 |
| CC(C)/C(=C1\SC(N2CCC3(CC2)OC(=O)c2ccccc23)=NC1=O)c1ccc(Cl)nc1 [Example 148, 1′-{(5E)-5-[1-(6-chloropyridin-3-yl)-2-methylpropylidene]-4-oxo-4,5-dihydro-1,3-thiazol-2-yl}-3H-spiro[2-benzofuran-1,4′-piperidin]-3-one] | 6.8 |
| O=C1N=C(N2CCC3(CC2)OCc2ccccc23)S/C1=C\c1ccncc1 [Example 95, 5-(pyridin-4-ylmethylidene)-2-(1′H,3H-spiro[2-benzofuran-1,4′-piperidin]-1′-yl)-1,3-thiazol-4(5H)-one] | 7.1 |
| C/C(=C1\SC(N2CCC3(CC2)OCc2ccccc23)=NC1=O)c1ncccc1C [Example 155, (5E)-5-[1-(3-methylpyridin-2-yl)ethylidene]-2-(1′H,3H-spiro[2-benzofuran-1,4′-piperidin]-1′-yl)-1,3-thiazol-4(5H)-one] | 8.7 |
| C/C(CN)=C1\SC(N2CCC3(CC2)OCc2ccccc23)=NC1=O.Cl [Example 66, (5E)-5-(1-aminopropan-2-ylidene)-2-(1′H,3H-spiro[2-benzofuran-1,4′-piperidin]-1′-yl)-1,3-thiazol-4(5H)-one hydrochloride (1:1)] | 6.6 |
| CC(C)(C)[Si](C)(C)OC/C(=C1\SC(N2CCC3(CC2)OC(=O)c2ccccc23)=NC1=O)c1ccc(Cl)nc1 [Example 146, 1′-{(5Z)-5-[2-{[tert-butyl(dimethyl)silyl]oxy}-1-(6-chloropyridin-3-yl)ethylidene]-4-oxo-4,5-dihydro-1,3-thiazol-2-yl}-3H-spiro[2-benzofuran-1,4′-piperidin]-3-one] | 7.3 |
| CC(C)(C)[Si](C)(C)OC/C(=C1/SC(N2CCC3(CC2)OC(=O)c2ccccc23)=NC1=O)c1ccccc1 [Example 140, 1′-[(5E)-5-(2-{[tert-butyl(dimethyl)silyl]oxy}-1-phenylethylidene)-4-oxo-4,5-dihydro-1,3-thiazol-2-yl]-3H-spiro[2-benzofuran-1,4′-piperidin]-3-one] | 8.9 |
| CC/C(=C1/SC(N2CCC3(CC2)OCc2ccccc23)=NC1=O)c1ccc(Cl)cc1 [Example 24, (5Z)-5-[1-(4-chlorophenyl)propylidene]-2-(1′H,3H-spiro[2-benzofuran-1,4′-piperidin]-1′-yl)-1,3-thiazol-4(5H)-one] | 9.1 |
| O=C1N=C(N2CCC3(CC2)OCc2ccccc23)S/C1=C\c1cccnc1 [Example 94, 5-(pyridin-3-ylmethylidene)-2-(1′H,3H-spiro[2-benzofuran-1,4′-piperidin]-1′-yl)-1,3-thiazol-4(5H)-one] | 7.1 |

| Compound | pKi hV1a |
| --- | --- |
| C/C(=C1\SC(N2CCC3(CC2)OCc2ccccc23)=NC1=O)c1cccnc1Cl [Example 84, (5E)-5-[1-(2-chloropyridin-3-yl)ethylidene]-2-(1′H,3H-spiro[2-benzofuran-1,4′-piperidin]-1′-yl)-1,3-thiazol-4(5H)-one] | 7.7 |
| O=C1N=C(N2CCC3(CC2)OCc2ccccc23)SC1=C(c1ccc(Cl)cc1)c1ccc(Cl)cc1 [Example 100, 5-[bis(4-chlorophenyl)methylidene]-2-(1′H,3H-spiro[2-benzofuran-1,4′-piperidin]-1′-yl)-1,3-thiazol-4(5H)-one] | 7.1 |
| O=C1N=C(N2CCC3(CC2)OCc2ncccc23)S/C1=C1/COCc2ccccc21 [Example 168, (5E/Z)-5-(1H-isochromen-4(3H)-ylidene)-2-(1′H,7H-spiro[furo[3,4-b]pyridine-5,4′-piperidin]-1′-yl)-1,3-thiazol-4(5H)-one] | 8.2 |
| O=C1N=C(N2CCC3(CC2)OCc2ccccc23)S/C1=C(\c1ccc(Cl)cc1)C1CC1 [Example 22, (5E/Z)-5-[(4-chlorophenyl)(cyclopropyl)methylidene]-2-(1′H,3H-spiro[2-benzofuran-1,4′-piperidin]-1′-yl)-1,3-thiazol-4(5H)-one] | 7.8 |
| [2H]C([2H])([2H])/C(=C1\SC(N2CCC3(CC2)OCc2ccccc23)=NC1=O)c1ccc(C)nc1 [Example 170, (5E)-5-[1-(6-methylpyridin-3-yl)(^2H3)ethylidene]-2-(1′H,3H-spiro[2-benzofuran-1,4′-piperidin]-1′-yl)-1,3-thiazol-4(5H)-one] | 8.0 |
| O=C1N=C(N2CCC3(CC2)OCc2ccccc23)S/C1=C1/CCc2cc(O)ccc21 [Example 54, (5E/Z)-5-(5-hydroxy-2,3-dihydro-1H-inden-1-ylidene)-2-(1′H,3H-spiro[2-benzofuran-1,4′-piperidin]-1′-yl)-1,3-thiazol-4(5H)-one] | 7.5 |
| C/C(=C1\SC(N2CCC3(CC2)OCc2ccccc23)=NC1=O)c1ccccc1 [Example 152, (5E)-5-(1-phenylethylidene)-2-(1′H,3H-spiro[2-benzofuran-1,4′-piperidin]-1′-yl)-1,3-thiazol-4(5H)-one] | 9.0 |
| C/C(=C1/SC(N2CCC3(CC2)OCc2ccccc23)=NC1=O)c1ccccc1F [Example 40, (5E/Z)-5-[1-(2-fluorophenyl)ethylidene]-2-(1′H,3H-spiro[2-benzofuran-1,4′-piperidin]-1′-yl)-1,3-thiazol-4(5H)-one] | 8.9 |
| C/C(=C1/SC(N2CCC3(CC2)OCc2ccccc23)=NC1=O)c1ccc[nH]1 [Example 34, (5E/Z)-5-[1-(1H-pyrrol-2-yl)ethylidene]-2-(1′H,3H-spiro[2-benzofuran-1,4′-piperidin]-1′-yl)-1,3-thiazol-4(5H)-one] | 9.2 |
| C/C(=C1\SC(N2CCC3(CC2)OCc2ccccc23)=NC1=O)c1c(C)noc1C [Example 106, (5E)-5-[1-(3,5-dimethyl-1,2-oxazol-4-yl)ethylidene]-2-(1′H,3H-spiro[2-benzofuran-1,4′-piperidin]-1′-yl)-1,3-thiazol-4(5H)-one] | 7.3 |
| CC(C)(C)/C(=C1/SC(N2CCC3(CC2)OCc2ccccc23)=NC1=O)c1ccc(Cl)cc1 [Example 21, (5E/Z)-5-[1-(4-chlorophenyl)-2,2-dimethylpropylidene]-2-(1′H,3H-spiro[2-benzofuran-1,4′-piperidin]-1′-yl)-1,3-thiazol-4(5H)-one] | 7.9 |
| O=C1N=C(N2CCC3(CC2)OCc2ccccc23)SC1=C1c2ccccc2CCc2ccccc21 [Example 98, 5-(10,11-dihydro-5H-dibenzo[a,d][7]annulen-5-ylidene)-2-(1′H,3H-spiro[2-benzofuran-1,4′-piperidin]-1′-yl)-1,3-thiazol-4(5H)-one] | 8.6 |
| CC(C)(C)[Si](C)(C)OC/C(=C1\SC(N2CCC3(CC2)OC(=O)c2ccccc23)=NC1=O)c1ccccc1 [Example 141, 1′-[(5Z)-5-(2-{[tert-butyl(dimethyl)silyl]oxy}-1-phenylethylidene)-4-oxo-4,5-dihydro-1,3-thiazol-2-yl]-3H-spiro[2-benzofuran-1,4′-piperidin]-3-one] | 7.6 |
| C/C(=C1/SC(N2CCC3(CC2)OCc2ccccc23)=NC1=O)c1cccnc1F [Example 61, (5Z)-5-[1-(2-fluoropyridin-3-yl)ethylidene]-2-(1′H,3H-spiro[2-benzofuran-1,4′-piperidin]-1′-yl)-1,3-thiazol-4(5H)-one] | 9.1 |
| O=C1N=C(N2CCC3(CC2)OCc2ccccc23)S/C1=C(/CO)c1ccc(Cl)nc1 [Example 130, (5E)-5-[1-(6-chloropyridin-3-yl)-2-hydroxyethylidene]-2-(1′H,3H-spiro[2-benzofuran-1,4′-piperidin]-1′-yl)-1,3-thiazol-4(5H)-one] | 8.9 |
